Like-named read-outs stand apart in the source and are kept apart here.
Legend:
[1] = system: Plasmodium falciparum 3D7; assay: In vitro growth inhibition assay (SYBR Green I), strain 3D7; format: cell-based; conditions: read-out: EC50, growth inhibition, P. falciparum 3D7
Experimental: (§1) A major goal of our study was to evaluate the drug target potential of P. falciparum GRP78, thus we evaluated the effect of the chaperone inhibition on the malaria parasite. Our approach took advantage of several GRP78 inhibitors (Fig. 3a) previously characterized against human cancer cell lines, which were commercially available[20],[24]–[27]. These compounds were tested against two different parasite strains with opposite sensitivity towards the antimalarial drug chloroquine, 3D7 (sensitive) and W2 (resistant). […] A synchronized P. falciparum culture, with over 80% ring forms, was used in the growth inhibition assay. Each strain was assayed at 0.5% parasitaemia and 1.5% hematocrit. A 190 µL aliquot of parasite culture was dispensed per well to microplates that were pre-dispensed with the compounds at various dilutions. […] Dilutions of GRP78 inhibitors and DHA were prepared in water with a final concentration of DMSO below 0.05% (v/v). […] After incubation, the plates were subject to a freeze-thaw cycle (−80 °C) and the parasite growth was quantified by the SYBR Green I method as previously described. Briefly, 100 µl of homogenized parasite culture was transferred into 96-well black plates. 100 µl of SYBR Green lysis buffer (2x SYBR Green I, 100 mM Tris-HCl pH 7.5, 10 mM EDTA, 0.016% Saponin and 1.6% Triton X-100) were added to each well. The plates were incubated at room temperature in darkness for 1 hour.
(§2) Growth inhibition experiments were conducted at least three times per compound. […] The statistical analysis was performed with the software Prism 7 (GraphPad Software, San Diego, CA).

[2] = system: Plasmodium falciparum W2; assay: In vitro growth inhibition assay (SYBR Green I), strain W2; format: cell-based; conditions: read-out: EC50, growth inhibition, P. falciparum W2
Experimental: as §1, §2

[3] = target: T1, PfGRP78-NBD wt (Plasmodium falciparum, UniProt Q05866); assay: biochemical; format: binding
T1 construct: His-tag (pET28-MHL, TEV site) (N, cleaved yes); made in house; host or cells: E. coli BL21(DE3)
Experimental: (§3) To quantify the binding affinities of PfGRP78-NBD for the selected compounds, dissociation constants (Kd) were determined by surface plasmon resonance (SPR). […] Purified PfGRP78-FL, PfGRP78-NBD wild-type and mutant, and human GRP78-NBD were immobilized on a CM5 sensorchip using NHS/EDC coupling following the manufacturer protocol to a level of <10,000 RUs, a reference surfaces without immobilized proteins served as a control for nonspecific binding and refractive index changes. […] The running buffer was 10 mM HEPES, pH 7.4, 150 mM NaCl, 0.005% P20, 1% DMSO and 2 mM MgCl2. Buffer only injections were used as blanks. The Biacore responses recorded during the 30 seconds of the injection were used to estimate the association constant (kon) and the 300 seconds after the injection were used to estimate the dissociation constant (koff). All dissociation and kinetic constants were estimated using double subtracted sensorgrams[40] using BiaEvaluation Software (GE Healthcare). All the reported parasite dissociation constants (Kd) were estimated with affinity analysis, and all the reported human Kds were calculated from kinetic constants.

[4] = system: HCT-116; assay: Growth inhibition of human cell line; format: cell-based
Experimental: as §2

[5] = target: T2, PfGRP78-NBD (Plasmodium falciparum, UniProt Q05866); assay: DSF thermal shift, PfGRP78-NBD; format: binding; conditions: compound 0.5 mM; shifts above or below 1 °C significant
T2 construct: His-tag (pET28-MHL, TEV site) (N, cleaved yes); made in house; host or cells: E. coli BL21(DE3)
Experimental: The Plasmodium and human GRP78 NBD differences were further characterized by measuring their interaction with ATP, ADP, and several compounds referenced in the literature as GRP78 inhibitors (Fig. 3a). Initially, their binding was determined using a DSF (Differential Scanning Fluorimetry) assay. In this assay, an interaction between the chaperone and a compound was measured as a change in the protein’s melting temperature (Tm), by subtracting the Tm of the protein by itself to the melting value of the protein in the presence of the compound. Differences above or below 1 °C between the melting temperatures (ΔTm) were considered indicative of a protein-compound interaction. As expected, the Plasmodium GRP78 chaperone interacted with both ATP and ADP. Four of the six compounds tested had significant effects on protein thermal stability (Fig. 3b).
DSF screening was carried out using a CFX96 Touch Real-Time PCR Detection System (BioRad, California). The PfGRP78-FL, PfGRP78-NBD wild type and mutant, and human GRP78-NBD were buffered in 25 mM hepes pH 7.5, 250 mM NaCl and assayed in a 96-well format. […]. The concentration was optimized for each protein to avoid saturation of the fluorescence detector. The GRP78 inhibitors were used at a final concentration of 0.5 mM. SYPRO Orange (Life Technologies, USA) was added as a fluorescence probe in a dilution of 1:1000. The experiments were conducted between 18 °C to 90 °C at a heating rate of 1 °C per minute. The recorded fluorescence reads were fitted to the Boltzmann sigmoid function using DMAN software. The inflection point of each fitted curve is defined as the melting temperature (Tm). The observed temperature shift, ΔTm, was recorded as the difference between Tm of the protein with ligand minus Tm of the protein without ligand. Thermal shifts above or below 1 °C were considered significant.

[6] = target: T3, huGRP78-NBD (Homo sapiens, UniProt P11021); assay: SPR (Biacore) binding to human GRP78-NBD
T3 construct: PfGRP78-NBD wild type and mutant, and human GRP78-NBD were buffered in 25 mM hepes pH 7.5
Experimental: as §3

[7] = target: T4, PfGRP78-FL (Plasmodium falciparum, UniProt Q05866, DEL449-452/N453V/P455G/Q454G/T226A); assay: DSF thermal shift, PfGRP78 full-length; format: binding; conditions: read-out: ΔTm (DSF), PfGRP78-FL
T4 construct: His-tag (TEV site) (N, cleaved yes); made in house; host or cells: E. coli BL21(DE3); gene synthesized by Life Technologies
Experimental: (§4) Initially, their binding was determined using a DSF (Differential Scanning Fluorimetry) assay. In this assay, an interaction between the chaperone and a compound was measured as a change in the protein’s melting temperature (Tm), by subtracting the Tm of the protein by itself to the melting value of the protein in the presence of the compound. Differences above or below 1 °C between the melting temperatures (ΔTm) were considered indicative of a protein-compound interaction.
(§5) DSF screening was carried out using a CFX96 Touch Real-Time PCR Detection System (BioRad, California). The PfGRP78-FL, PfGRP78-NBD wild type and mutant, and human GRP78-NBD were buffered in 25 mM hepes pH 7.5, 250 mM NaCl and assayed in a 96-well format. The final concentration of the protein sample was optimized between 0.05 and 0.2 mg/ml for each protein. The concentration was optimized for each protein to avoid saturation of the fluorescence detector. The GRP78 inhibitors were used at a final concentration of 0.5 mM. SYPRO Orange (Life Technologies, USA) was added as a fluorescence probe in a dilution of 1:1000.

[8] = target: T3, huGRP78-NBD; assay: DSF thermal shift, human GRP78-NBD; format: binding; conditions: compound 0.5 mM
Experimental: as §4, §5

[9] = target: T5, PfGRP78-NBD mut (Y39F) (Plasmodium falciparum, UniProt Q05866, Y39F); assay: SPR (Biacore) binding to PfGRP78-NBD Y39F mutant; conditions: ± standard error, 25 °C, read-out: affinity constant (Kd) determined by SPR, PfGRP78-NBD mut
T5 construct: His-tag (pET28-MHL, TEV site) (N, cleaved yes); made in house; host or cells: E. coli BL21(DE3)
Experimental: To quantify the binding affinities of PfGRP78-NBD for the selected compounds, dissociation constants (Kd) were determined by surface plasmon resonance (SPR). […] Purified PfGRP78-FL, PfGRP78-NBD wild-type and mutant, and human GRP78-NBD were immobilized on a CM5 sensorchip using NHS/EDC coupling following the manufacturer protocol to a level of <10,000 RUs, a reference surfaces without immobilized proteins served as a control for nonspecific binding and refractive index changes. Seven different concentrations of the ligands between 0.4 nM to 1 mM, were injected in triplicate over the sensor chip at 30 µL/min in random order. The running buffer was 10 mM HEPES, pH 7.4, 150 mM NaCl, 0.005% P20, 1% DMSO and 2 mM MgCl2. Buffer only injections were used as blanks. The Biacore responses recorded during the 30 seconds of the injection were used to estimate the association constant (kon) and the 300 seconds after the injection were used to estimate the dissociation constant (koff). All dissociation and kinetic constants were estimated using double subtracted sensorgrams[40] using BiaEvaluation Software (GE Healthcare). All the reported parasite dissociation constants (Kd) were estimated with affinity analysis, and all the reported human Kds were calculated from kinetic constants.

[10] = Plasmodium falciparum, 3D7, 72 h
[11] = Plasmodium falciparum, W2, 72 h
[12] = ± standard error, affinity analysis, 25 °C
[13] = ± standard error, calculated from kinetic constants, 25 °C

T3 sequence (P11021 26-407 limits assumed): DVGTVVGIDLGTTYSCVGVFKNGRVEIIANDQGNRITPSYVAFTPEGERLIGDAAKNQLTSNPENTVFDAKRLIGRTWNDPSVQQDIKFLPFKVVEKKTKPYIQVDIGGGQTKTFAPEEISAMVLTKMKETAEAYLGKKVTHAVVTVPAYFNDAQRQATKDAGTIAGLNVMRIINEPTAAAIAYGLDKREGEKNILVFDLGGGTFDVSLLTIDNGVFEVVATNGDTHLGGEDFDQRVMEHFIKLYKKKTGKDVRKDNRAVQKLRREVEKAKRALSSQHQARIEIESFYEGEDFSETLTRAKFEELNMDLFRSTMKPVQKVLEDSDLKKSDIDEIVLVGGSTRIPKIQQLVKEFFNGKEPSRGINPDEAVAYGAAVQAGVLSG

Row | Compound | EC50 [1, 10] | EC50 [2, 11] | DSF effect on thermal stability of PfGRP78-NBD [5] | affinity constant (Kd) determined by SPR, PfGRP78-NBD wt [3, 12] | affinity constant (Kd) determined by SPR, huGRP78-NBD [6, 13] | other results
1 | C[C@H]1[C@@H](O)O[C@@H]2O[C@@]3(C)CC[C@H]4[C@H](C)CC[C@@H]1[C@@]24OO3 [DHA] | – | – | – | – | – | EC50 ([1]; chloroquine-sensitive strain, 72 hours, average of three ± SD): 0.4 ± 0.07 nM; EC50 ([2]; chloroquine-resistant strain, 72 hours, average of three ± SD): 0.1 ± 0.02 nM
2 | N#Cc1ccc(COCC2OC(n3c(NCc4ccc(Cl)c(Cl)c4)nc4c(N)ncnc43)C(O)C2O)cc1 (centres unmarked) [VER-155008] | 82100 ± 49700 nM | 39500 nM | increased the thermal stability | – | – | Kd [3]: 164000 ± 13600 nM; EC50 ([4]; HCT-116, human cell line, average of three ± SD, read-out: EC50, growth inhibition, HCT-116): 15710 ± 70 nM
3 | C=Cc1cc(OC)c2c(c1)c(=O)oc1c2cc(OC)c2c(O)ccc(C3OC(C(C)O)C(O)C3O)c21 (centres unmarked) [Gilvocarcin V] | 20 ± 4 nM | 80 ± 40 nM | increased the thermal stability | N.B. | N.B. | affinity constant (Kd) determined by SPR, PfGRP78-NBD wt ([3]; ± standard error, affinity analysis, 25 °C, listed as Gilvocarcin A): too weak to accurately determine its dissociation constant; affinity constant (Kd) determined by SPR, huGRP78-NBD ([6]; ± standard error, calculated from kinetic constants, 25 °C, listed as Gilvocarcin A): too weak to accurately determine its dissociation constant
4 | CCN(CC)CCCC(C)Nc1ccnc2cc(Cl)ccc12 (centres unmarked) [CQ, chloroquine] | 50 ± 11 nM | 230 ± 30 nM | – | – | – | –
5 | CCN(CC)c1ncnc2c1ncn2[C@H]1O[C@@H](COP(=O)(O)OP(=O)(O)C(Br)(Br)P(=O)(O)O)[C@H](O)[C@@H]1O [ARL-67156] | – | – | non-binders | N.B. | N.B. | –
6 | CN(NC(=O)CC(=O)NN(C)C(=S)c1ccccc1)C(=S)c1ccccc1 [Elesclomol] | – | – | non-binders | N.B. | N.B. | EC50 ([1]; Plasmodium falciparum, 3D7, chloroquine-sensitive strain, 72 hours, average of three ± SD): 50 ± 17 nM; EC50 ([2]; Plasmodium falciparum, W2, chloroquine-resistant strain, 72 hours, average of three ± SD): 60 ± 10 nM
7 | CCn1c(=O)/c(=C2\Sc3ccccc3N2C)s/c1=C\c1cccc[n+]1CC [MKT-077] | 70 ± 20 nM | 70 ± 30 nM | significant thermal destabilization | – | – | Kd [3]: 16400 ± 1700 nM; Kd [6]: 16000 ± 170 nM; times more selective towards P. falciparum ([4]; HCT-116 vs P. falciparum EC50, Results text b30): 14 times; EC50 ([4]; Homo sapiens, HCT-116, read-out: EC50, growth inhibition, HCT-116): 980 ± 230 nM; ΔTm at 500 µM [7]: 0.6 °C; DSF effect on thermal stability of human GRP78-NBD [8]: destabilized
8 | Nc1ncnc2c1ncn2[C@@H]1O[C@H](COP(=O)(O)OP(=O)(O)OP(=O)(O)O)[C@@H](O)[C@H]1O [ATP] | – | – | interacted | – | – | fold decrease in affinity of malaria chaperone compared to the human counterpart ([3]; SPR Kd, PfGRP78-NBD vs huGRP78-NBD): 23 fold; Kd ([3]; ± standard error, affinity analysis, 25 °C, read-out: affinity constant (Kd) determined by SPR, PfGRP78-NBD wt): 333000 ± 74000 nM; Kd [9]: 312000 ± 15000 nM; Kd ([6]; ± standard error, calculated from kinetic constants, 25 °C, read-out: affinity constant (Kd) determined by SPR, huGRP78-NBD): 14000 ± 7000 nM

Reference: article PMC6037779, “Repurposing drugs to target the malaria parasite unfolding protein response” (Scientific Reports, 2018)
